These results are taken from patent US12686664B2, “SOCE inhibitors and therapeutic uses thereof” (Institut National de la Santé et de la Recherche Médicale …, priority 2020, dated 2026).

For orientation: IC50 means the point on the concentration scale where inhibition reaches its midpoint.

Like-named read-outs stand apart in the source and are kept apart here. Marks after values point to notes of the source that are not given here.

This experiment has as its system store-operated Ca^2+ entry in PLP-B lymphocytes. Put plainly: Store-operated Ca2+ entry after thapsigargin depletion of ER Ca2+ stores in PLP-B lymphocytes. In kind it is cell-based. Here is the method: The effects of the molecules developed were tested on PLP-B lymphocytes. Store-operated Ca^2+ entry was induced by depletion of Endoplasmic Reticulum Ca^2+ stores (ER Ca^2+ stores) with thapsigargin (Tg) in a Ca^2+-free medium and measured following the addition of 1.8 mM of CaCl2) in the extracellular medium. The results are compared to the results obtained for known SOCE inhibitors SKF-96365, GSK-7975A, Synta 66.

Setting [1] is: Lymphocyte, 10 μM, PLP-B lymphocytes, % of inhibition (−) or activation, DMSO control 100%, read-out: Effect on amplitude of SOCE Peak.
Where [2] appears, read: Lymphocyte, 10 μM, thapsigargin (Tg) peak, PLP-B lymphocytes, % of inhibition (−) or activation, read-out: Effect on amplitude of Tg Peak.
Where [3] appears, read: Lymphocyte, 50 μM, PLP-B lymphocytes, % of inhibition (−) or activation, DMSO control 100%, read-out: Effect on amplitude of SOCE Peak.
Where [4] appears, read: Lymphocyte, 50 μM, thapsigargin (Tg) peak, PLP-B lymphocytes, % of inhibition (−) or activation, read-out: Effect on amplitude of Tg Peak.
[5] abbreviates: Lymphocyte, 100 μM, PLP-B lymphocytes, % of inhibition (−) or activation, DMSO control 100%, read-out: Effect on amplitude of SOCE Peak.
Where [6] appears, read: Lymphocyte, 100 μM, thapsigargin (Tg) peak, PLP-B lymphocytes, % of inhibition (−) or activation, read-out: Effect on amplitude of Tg Peak.
Where [7] appears, read: Lymphocyte, PLP-B lymphocytes, % of inhibition (−) or activation, DMSO control 100%, read-out: Effect on amplitude of SOCE Peak.
Where [8] appears, read: Lymphocyte, thapsigargin (Tg) peak, PLP-B lymphocytes, % of inhibition (−) or activation, read-out: Effect on amplitude of Tg Peak.

“1-(4-(Methoxymethoxy)-2-(trifluoromethyl)-1H-benzo[d]imidazole [6αaf VAL3.33]”: the “Effect on amplitude of SOCE peak” value is given as 40.0# % (10 μM, PLP-B lymphocytes, % of inhibition (−) or activation, DMSO control 100%); 1.0% (50 μM, PLP-B lymphocytes, % of inhibition (−) or activation, DMSO control 100%); −2.0% (100 μM, PLP-B lymphocytes, % of inhibition (−) or activation, DMSO control 100%). For the same compound, the “Effect on amplitude of Tg Peak” value (10 μM, thapsigargin (Tg) peak, PLP-B lymphocytes, % of inhibition (−) or activation) is −29.0# %; the “Effect on amplitude of Tg Peak” value (50 μM, thapsigargin (Tg) peak, PLP-B lymphocytes, % of inhibition (−) or activation) was −34.0# %; the “Effect on amplitude of Tg Peak” value (100 μM, thapsigargin (Tg) peak, PLP-B lymphocytes, % of inhibition (−) or activation) is given as −38.0# %.

As to `COc1ccc(CCCOc2ccc(CCn3ncc4ccccc43)cc2)cc1` [6αaa DAD 4-574], the inhibition at 10 µM reads like this: under setting [1], 10.4%; under setting [2], 23.1%. Moreover, the inhibition at 50 µM is, setting by setting: under setting [3], 16.4%; under setting [4], 13.3%. Also, the inhibition at 100 µM runs as follows: under setting [5], 31.6%; under setting [6], 19.7%.

Take `c1ccc(CCOc2ccc(CCn3cnc4ccccc43)cc2)cc1` [6αab DAD 4-553]: the inhibition at 50 µM came to 2% under setting [3] and 1% under setting [4]. For the same compound, the inhibition at 100 µM runs as follows: under setting [5], 46%; under setting [6], 8%.

For `c1ccc(CCCOc2ccc(CCn3ncc4ccccc43)cc2)cc1` [6αab DAD 4-575], the inhibition at 10 µM is -20.8% under setting [1] and 8.9% under setting [2]. For the same compound, the inhibition at 50 µM runs as follows: under setting [3], 2.9%; under setting [4], 20.7%. Further, the inhibition at 100 µM under setting [5] amounted to 43.6% and the inhibition at 100 µM under setting [6] stood at 24.2%.

Regarding `COc1ccccc1CCOc1ccc(CCn2cnc3ccccc32)cc1` [6αac DAD 4-566], the inhibition at 0.1 µM was -12.9% under setting [7] and -2.3% under setting [8]. For the same compound, the inhibition at 1 µM was -6.2% under setting [7] and 1.1% under setting [8]. Besides, the inhibition at 10 µM was 31.1% under setting [1] and -9.6% under setting [2]. Moreover, the inhibition at 50 µM reads like this: under setting [3], 87.2%; under setting [4], -9%. Besides, the inhibition at 100 µM runs as follows: under setting [5], 84.3%; under setting [6], -13.2%. The IC50 (Lymphocyte, SOCE in PLP-B lymphocytes, average of three assays, ±0.5 μM) amounted to 13.5 µM.

Take `COc1cccc(CCOc2ccc(CCn3cnc4ccccc43)cc2)c1` [6αad DAD 4-567]: under setting [7], the inhibition at 0.1 µM was -12.9%. For the same compound, the inhibition at 1 µM is -2.9% under setting [7] and 16.2% under setting [8]. Besides, the inhibition at 10 µM reads like this: under setting [1], 28.1%; under setting [2], 5.7%. Further, the inhibition at 50 µM was 81.7% under setting [3] and 9.1% under setting [4]. Besides, the inhibition at 100 µM under setting [5] turned out to be 84.3%.

As for `COCOc1ccc(CCn2cnc3ccccc32)cc1` [6αad VAL3.31, 1-(4-(Methoxymethoxy)phenethyl)-1H-benzo[d]imidazole], the inhibition at 10 µM runs as follows: under setting [1], -51%; under setting [2], 10%. Also, the inhibition at 50 µM reads like this: under setting [3], -54%; under setting [4], 9%. Besides, the inhibition at 100 µM is -5% under setting [5] and 15% under setting [6].

Turning to `c1ccc(OCCOc2ccc(CCn3cnc4ccccc43)cc2)cc1` [6αae DAD 4-569], the inhibition at 10 µM was -7.5% under setting [1] and 11.3% under setting [2]. Also, the inhibition at 50 µM reads like this: under setting [3], -13.1%; under setting [4], 7.6%. Moreover, the inhibition at 100 µM reads like this: under setting [5], 12.4%; under setting [6], 12%.

On to `COCOc1ccc(CCn2ncc3ccccc32)cc1` [6αae VAL3.32, 1-(4-(Methoxymethoxy)phenethyl)-1H-indazole], for which the inhibition at 10 µM is -39% under setting [1] and 26% under setting [2]. Further, the inhibition at 50 µM runs as follows: under setting [3], -23%; under setting [4], 19%. For the same compound, the inhibition at 100 µM reads like this: under setting [5], 24%; under setting [6], 27%.

Turning to `COc1ccc(CCOc2ccc(CCn3ncc4ccccc43)cc2)cc1` [6αb DAD 4-573, 1-(4-(4-Methoxyphenethoxy)phenethyl)-1H-indazole], the inhibition at 10 µM reads like this: under setting [1], -14%; under setting [2], 8%. For the same compound, under setting [3], the percent change in peak amplitude vs DMSO control (negative = inhibition, positive = activation) at 50 µM was determined as 0%. Besides, the inhibition at 50 µM under setting [4] is 5%. Besides, the inhibition at 100 µM reads like this: under setting [5], 30%; under setting [6], 22%.

For `COc1ccc(CCOc2ccc(CCn3c(C(F)(F)F)nc4ccccc43)cc2)cc1` [6αc DAD 4-546, 1-(4-(4-Methoxyphenethoxy)phenethyl)-2-trifluoromethyl-1H-benzo[d]imidazole], the inhibition at 50 µM was 30% under setting [3] and 18% under setting [4]. Moreover, the inhibition at 100 µM by setting is: under setting [5], 26%; under setting [6], 18%.

In the case of `Fc1ccc(CCOc2ccc(CCn3cnc4ccccc43)cc2)cc1` [6αd DAD 4-568], the inhibition at 10 µM reads like this: under setting [1], 7.8%; under setting [2], 8.5%. For the same compound, the inhibition at 50 µM runs as follows: under setting [3], -1.3%; under setting [4], 5.3%. For the same compound, the inhibition at 100 µM under setting [5] amounted to 64% and the inhibition at 100 µM under setting [6] came to 15.1%.

For the compound `COc1ccc(CCOc2ccc(CCn3cnc4c(Cl)cc(C(F)(F)F)cc43)cc2)cc1` [6αe DAD 4-548, 4-Chloro-1-(4-(4-methoxyphenethoxy)phenethyl)-6-(trifluoromethyl)-1H-benzo[d]imidazole], the inhibition at 50 µM by setting is: under setting [3], 28%; under setting [4], -5%. Besides, the inhibition at 100 µM is, setting by setting: under setting [5], 9%; under setting [6], -1%.

On to `c1ccc(CCCOc2ccc(CCn3cnc4ccccc43)cc2)cc1` [6αm DAD 3-475], for which the inhibition at 50 µM was 4% under setting [3] and -7% under setting [4]. The inhibition at 100 µM reads like this: under setting [5], 77%; under setting [6], -7%.

With `COc1ccc(CCOc2ccc(CCn3c(C(F)(F)F)nc4cc(N)ccc43)cc2)cc1` [6αm VAL 1-77], the inhibition at 10 µM reads like this: under setting [1], -4%; under setting [2], 1%. The inhibition at 50 µM was 12% under setting [3] and 1% under setting [4]. The inhibition at 100 µM was found to be 55% under setting [5] and 11% under setting [6].

As to `COc1ccc(CCCOc2ccc(CCn3cnc4ccccc43)cc2)cc1` [6αn DAD 3-474], the inhibition at 1 µM by setting is: under setting [7], -1%; under setting [8], 11%. In addition, the inhibition at 10 µM was -16% under setting [1] and 5% under setting [2]. Further, the inhibition at 50 µM by setting is: under setting [3], -4%; under setting [4], -5%. Also, the inhibition at 100 µM worked out at 25% under setting [5] and 3% under setting [6].

Consider `COc1ccc(CCOc2ccccc2CCn2cnc3ccccc32)cc1` [6αo DAD 4-551], for which the inhibition at 50 µM reads like this: under setting [3], 33%; under setting [4], 4%. Also, the inhibition at 100 µM runs as follows: under setting [5], 82%; under setting [6], -8%.

As for `COc1ccc(CCOc2cccc(CCn3cnc4ccccc43)c2)cc1` [6αp DAD 4-552], the inhibition at 50 µM turned out to be 29% under setting [3] and 15% under setting [4]. Further, the inhibition at 100 µM by setting is: under setting [5], 71%; under setting [6], 7%.

In the case of `c1ccc(OCCCOc2ccc(CCn3cnc4ccccc43)cc2)cc1` [6αs DAD 4-570], the inhibition at 10 µM was found to be 9.4% under setting [1] and 10.6% under setting [2]. Moreover, the inhibition at 50 µM is 19% under setting [3] and -0.7% under setting [4]. Moreover, the inhibition at 100 µM was 56.9% under setting [5] and 4.1% under setting [6].

As for `COc1ccc(COc2ccc(CCn3c(C(F)(F)F)nc4cc(N)ccc43)cc2)cc1` [6αt VAL 1-76], the inhibition at 10 µM was 3% under setting [1] and -1% under setting [2]. The inhibition at 50 µM is 10% under setting [3] and -6% under setting [4]. The inhibition at 100 µM came out at 34% under setting [5] and 22% under setting [6].

Take `COc1ccc(CCCOc2ccc(CCn3c(C(F)(F)F)nc4cc(N)ccc43)cc2)cc1` [6αu VAL 1-75]: the inhibition at 10 µM is -6% under setting [1] and -5% under setting [2]. For the same compound, the inhibition at 50 µM reads like this: under setting [3], 30%; under setting [4], -11%. Besides, the inhibition at 100 µM was 68% under setting [5] and -5% under setting [6].

On to `Nc1ccc2c(c1)nc(C(F)(F)F)n2CCc1ccc(OCCCc2ccccc2)cc1` [6αv VAL 1-64], for which the inhibition at 10 µM under setting [1] is -8%. Further, the percent change in peak amplitude vs DMSO control (negative = inhibition, positive = activation) at 10 µM under setting [2] was 0%. Moreover, the inhibition at 50 µM under setting [3] is 25% and the inhibition at 50 µM under setting [4] is -11%. Further, the inhibition at 100 µM was 77% under setting [5] and -2% under setting [6].
